According to PubChem BioAssay AID1919003 (Molecular Pharmacology Branch, DTP, NCI, 2023):
Where “and” joins values, the source holds several entries; their conditions need not be identical. Equal values may be shown once.

Test system: 786-0 complex spheroids with HUVEC/MSC, growth % test/control
Experiment: Anticancer human tumor 786-0 cell line growth inhibition [AhR];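 further: compound exposure lasted seven days before the read-out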
Details: for viability, T/C: stronger effect = lower value; active means viability on the fitted dose curve at most 10% of control; inactive means the rest
Method in brief: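 Complex tumor spheroids co-cultured with HUVEC and human MSC stroma; AhR antagonists tested in combination with standard-of-care and investigational agents. Top concentration at or near clinical Cmax (else 10 microM), half-log dilutions; growth expressed as percent test/control.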

[1] = curve of first compound, second compound 0.1 µM
[2] = curve of first compound, second compound 0.316 µM
[3] = curve of first compound, second compound 1 µM
[4] = curve of first compound, second compound 3.16 µM
[5] = curve of first compound, second compound 10 µM
[6] = second compound 0.1 µM, first compound 0.0316 µM
[7] = second compound 0.1 µM, first compound 0.1 µM
[8] = second compound 0.1 µM, first compound 0.316 µM
[9] = second compound 0.1 µM, first compound 1 µM
[10] = second compound 0.1 µM, first compound 3.16 µM
[11] = second compound 0.1 µM, first compound 10 µM
[12] = second compound 0.316 µM, first compound 0.0316 µM
[13] = second compound 0.316 µM, first compound 0.1 µM
[14] = second compound 0.316 µM, first compound 0.316 µM
[15] = second compound 0.316 µM, first compound 1 µM
[16] = second compound 0.316 µM, first compound 3.16 µM
[17] = second compound 0.316 µM, first compound 10 µM
[18] = second compound 1 µM, first compound 0.0316 µM
[19] = second compound 1 µM, first compound 0.1 µM
[20] = second compound 1 µM, first compound 0.316 µM
[21] = second compound 1 µM, first compound 1 µM
[22] = second compound 1 µM, first compound 3.16 µM
[23] = second compound 1 µM, first compound 10 µM
[24] = second compound 3.16 µM, first compound 0.0316 µM
[25] = second compound 3.16 µM, first compound 0.1 µM
[26] = second compound 3.16 µM, first compound 0.316 µM
[27] = second compound 3.16 µM, first compound 1 µM
[28] = second compound 3.16 µM, first compound 3.16 µM
[29] = second compound 3.16 µM, first compound 10 µM
[30] = second compound 10 µM, first compound 0.0316 µM
[31] = second compound 10 µM, first compound 0.1 µM
[32] = second compound 10 µM, first compound 0.316 µM
[33] = second compound 10 µM, first compound 1 µM
[34] = second compound 10 µM, first compound 3.16 µM
[35] = second compound 10 µM, first compound 10 µM

COc1cc(Nc2ncc3c(n2)-c2ccc(Cl)cc2C(c2c(F)cccc2OC)=NC3)ccc1C(=O)O + Cc1ccccc1N=Nc1ccc(NC(=O)c2ccnn2C)c(C)c1
inactive: viability, T/C [6] 98.7% | viability, T/C [7] 109% | viability, T/C [8] 117% | viability, T/C [9] 84.7% | viability, T/C [10] 58.3% | viability, T/C [11] 30.1% | viability, T/C [12] 107% | viability, T/C [13] 107% | viability, T/C [14] 133% | viability, T/C [15] 91.6% | viability, T/C [16] 55.1% | viability, T/C [17] 28.7% | viability, T/C [18] 108% | viability, T/C [19] 109% | viability, T/C [20] 121% | viability, T/C [21] 89.2% | viability, T/C [22] 55.5% | viability, T/C [23] 30.2% | viability, T/C [24] 95.8% | viability, T/C [25] 98.4% | viability, T/C [26] 103% | viability, T/C [27] 82.3% | viability, T/C [28] 63.2% | viability, T/C [29] 29.2% | viability, T/C [30] 83.3% | viability, T/C [31] 85.3% | viability, T/C [32] 106% | viability, T/C [33] 91.8% | viability, T/C [34] 60.2% | viability, T/C [35] 38.2%
4.82 µM: IC50 [4]
3.61 µM: IC50 [2]
4.13 µM: IC50 [1]
3.78 µM: IC50 [3]
5.41 µM: IC50 [5]

CC[C@@]1(O)C(=O)OCc2c1cc1n(c2=O)Cc2cc3c(CN(C)C)c(O)ccc3nc2-1
0.0447 µM and 0.0533 µM and 0.057 µM: IC50 (curve of compound)
inactive: viability, T/C (compound 0.000316 µM) 105% and 100% and 103% | viability, T/C (compound 0.001 µM) 97.3% and 102% and 104% | viability, T/C (compound 0.00316 µM) 96.1% and 107% and 98% | viability, T/C (compound 0.01 µM) 97.8% and 106% and 109% | viability, T/C (compound 0.0316 µM) 64.5% and 73.7% and 85.6% | viability, T/C (compound 0.1 µM) 16.4% and 21.4% and 16.1%

O=C(C=Cc1cccc(S(=O)(=O)Nc2ccccc2)c1)NO + Cc1ccccc1N=Nc1ccc(NC(=O)c2ccnn2C)c(C)c1
inactive: viability, T/C [6] 89.2% | viability, T/C [7] 103% | viability, T/C [8] 88.4% | viability, T/C [9] 94.3% | viability, T/C [10] 87.7% | viability, T/C [11] 20.9% | viability, T/C [12] 100% | viability, T/C [13] 97.1% | viability, T/C [14] 101% | viability, T/C [15] 101% | viability, T/C [16] 86.4% | viability, T/C [17] 22.1% | viability, T/C [18] 98.2% | viability, T/C [19] 100% | viability, T/C [20] 106% | viability, T/C [21] 93.5% | viability, T/C [22] 90.7% | viability, T/C [23] 22.5% | viability, T/C [24] 85% | viability, T/C [25] 91.4% | viability, T/C [26] 85.8% | viability, T/C [27] 81.9% | viability, T/C [28] 80% | viability, T/C [29] 21.4% | viability, T/C [30] 93.5% | viability, T/C [31] 87.2% | viability, T/C [32] 85.9% | viability, T/C [33] 85.5% | viability, T/C [34] 67.3% | viability, T/C [35] 14.2%
6.06 µM: IC50 [1]
4.61 µM: IC50 [5]
5.7 µM: IC50 [4]
6.3 µM: IC50 [3]
6.08 µM: IC50 [2]

Nc1ccccc1NC(=O)c1ccc(CNC(=O)OCc2cccnc2)cc1
5.56 µM and 7.78 µM and 6.04 µM: IC50 (curve of compound)
inactive: viability, T/C (compound 0.0316 µM) 105% and 107% and 108% | viability, T/C (compound 0.1 µM) 102% and 106% and 113% | viability, T/C (compound 0.316 µM) 106% and 102% and 111% | viability, T/C (compound 1 µM) 113% and 108% and 114% | viability, T/C (compound 3.16 µM) 73.9% and 96.8% and 86.7% | viability, T/C (compound 10 µM) 25.2% and 36.6% and 21.4%

CCN(c1cc(-c2ccc(CN3CCOCC3)cc2)cc(C(=O)NCc2c(C)cc(C)[nH]c2=O)c1C)C1CCOCC1 + Cc1ccccc1N=Nc1ccc(NC(=O)c2ccnn2C)c(C)c1
> 3 µM: IC50 [1] | IC50 [2] | IC50 [3] | IC50 [4] | IC50 [5]
inactive: viability, T/C (second compound 0.1 µM, first compound 0.00949 µM) 106% | viability, T/C (second compound 0.1 µM, first compound 0.03 µM) 104% | viability, T/C (second compound 0.1 µM, first compound 0.0949 µM) 98.3% | viability, T/C (second compound 0.1 µM, first compound 0.3 µM) 107% | viability, T/C (second compound 0.1 µM, first compound 0.949 µM) 101% | viability, T/C (second compound 0.1 µM, first compound 3 µM) 110% | viability, T/C (second compound 0.316 µM, first compound 0.00949 µM) 104% | viability, T/C (second compound 0.316 µM, first compound 0.03 µM) 106% | viability, T/C (second compound 0.316 µM, first compound 0.0949 µM) 116% | viability, T/C (second compound 0.316 µM, first compound 0.3 µM) 111% | viability, T/C (second compound 0.316 µM, first compound 0.949 µM) 119% | viability, T/C (second compound 0.316 µM, first compound 3 µM) 118% | viability, T/C (second compound 1 µM, first compound 0.00949 µM) 112% | viability, T/C (second compound 1 µM, first compound 0.03 µM) 106% | viability, T/C (second compound 1 µM, first compound 0.0949 µM) 106% | viability, T/C (second compound 1 µM, first compound 0.3 µM) 97.4% | viability, T/C (second compound 1 µM, first compound 0.949 µM) 102% | viability, T/C (second compound 1 µM, first compound 3 µM) 98.6% | viability, T/C (second compound 3.16 µM, first compound 0.00949 µM) 109% | viability, T/C (second compound 3.16 µM, first compound 0.03 µM) 114% | viability, T/C (second compound 3.16 µM, first compound 0.0949 µM) 102% | viability, T/C (second compound 3.16 µM, first compound 0.3 µM) 93.3% | viability, T/C (second compound 3.16 µM, first compound 0.949 µM) 116% | viability, T/C (second compound 3.16 µM, first compound 3 µM) 94.2% | viability, T/C (second compound 10 µM, first compound 0.00949 µM) 106% | viability, T/C (second compound 10 µM, first compound 0.03 µM) 102% | viability, T/C (second compound 10 µM, first compound 0.0949 µM) 89.2% | viability, T/C (second compound 10 µM, first compound 0.3 µM) 100% | viability, T/C (second compound 10 µM, first compound 0.949 µM) 98.3% | viability, T/C (second compound 10 µM, first compound 3 µM) 103%

NS(=O)(=O)OCC1CC(n2ccc3c(NC4CCc5ccccc54)ncnc32)CC1O (centres undefined) + Cc1ccccc1N=Nc1ccc(NC(=O)c2ccnn2C)c(C)c1
0.374 µM: IC50 [5]
0.652 µM: IC50 [2]
0.563 µM: IC50 [1]
0.499 µM: IC50 [3]
inactive: viability, T/C [6] 90% | viability, T/C [7] 78.6% | viability, T/C [8] 65.5% | viability, T/C [9] 37% | viability, T/C [10] 8.68% | viability, T/C [12] 87.3% | viability, T/C [13] 69.5% | viability, T/C [14] 68.1% | viability, T/C [15] 42.2% | viability, T/C [16] 10.6% | viability, T/C [18] 88% | viability, T/C [19] 68% | viability, T/C [20] 63.2% | viability, T/C [21] 37.5% | viability, T/C [22] 9.47% | viability, T/C [24] 73.8% | viability, T/C [25] 65% | viability, T/C [26] 59.4% | viability, T/C [27] 29.1% | viability, T/C [30] 76.1% | viability, T/C [31] 69.5% | viability, T/C [32] 54.3% | viability, T/C [33] 27.4% | viability, T/C [34] 11.3%
active: viability, T/C [11] 5.47% | viability, T/C [17] 6.57% | viability, T/C [23] 5.05% | viability, T/C [28] 9.11% | viability, T/C [29] 4.17% | viability, T/C [35] 6.68%
0.437 µM: IC50 [4]

CC1COCCN1c1cc(C2(S(C)(=N)=O)CC2)nc(-c2ccnc3[nH]ccc23)n1 (centres undefined) + CC(CO)NC(=O)c1cc(-c2ccc(Cl)cc2)nn(-c2cnn(C)c2)c1=O
2.09 µM: IC50 [5]
3.02 µM: IC50 [1]
inactive: viability, T/C [6] 99.7% | viability, T/C [7] 99.5% | viability, T/C [8] 98.1% | viability, T/C [9] 99.4% | viability, T/C [10] 48% | viability, T/C [11] 15.7% | viability, T/C [12] 101% | viability, T/C [13] 110% | viability, T/C [14] 96.2% | viability, T/C [15] 101% | viability, T/C [16] 43.6% | viability, T/C [17] 17.3% | viability, T/C [18] 108% | viability, T/C [19] 102% | viability, T/C [20] 113% | viability, T/C [21] 97.4% | viability, T/C [22] 41.3% | viability, T/C [23] 13.7% | viability, T/C [24] 108% | viability, T/C [25] 101% | viability, T/C [26] 118% | viability, T/C [27] 107% | viability, T/C [28] 37.5% | viability, T/C [29] 10.8% | viability, T/C [30] 110% | viability, T/C [31] 118% | viability, T/C [32] 115% | viability, T/C [33] 93.6% | viability, T/C [34] 25.5%
2.78 µM: IC50 [2]
2.57 µM: IC50 [4]
active: viability, T/C [35] 8.6%
2.64 µM: IC50 [3]
